This experiment relates to S. aureus. The experiment in a line: MIC and MBC antibacterial test. The class given is cell-based. To be noted: Staphylococcus aureus.

Values after ≈ are worked out from the molar mass of the structure shown.

The compound `O=C(O)/C=C/c1ccc(O)c(O)c1` [CA, caffeic acid] returned an MBC of 4 µg/mL (≈ 22.2 µM) and an MIC of 4 µg/mL (≈ 22.2 µM).
